Bounds are passed on as bounds.

The values below come from PubChem BioAssay AID1508591.

For this data set the following is noted: rat; liver microsomes; pH 7.4; 15.0 min; 1.0 µM. On the technique in general: Microsomes from liver hold many membrane-bound enzymes, among them those of drug oxidation.
The half-life is the time needed for the level to fall by half in the phase considered. As for `COc1ccc(Cn2c(=O)[nH]c3cc(C(=O)NCCCN4CCCCC4)ccc3c2=O)cc1`, the half-life was more than 30 min.
In the case of `Cc1ccc(-c2cc(C(=O)Nc3ccc(S(C)(=O)=O)cc3)c3ccccc3n2)cc1C`, the half-life is more than 30 min.
For the molecule `Cc1ccc(S(=O)(=O)Nc2cc(Cl)cc(C(=O)Nc3nc(-c4ccccc4)cs3)c2)cc1`, the half-life worked out at 22 min.
The figure for `S=C(NCCCc1cnc[nH]1)NCCCN(Cc1ccc(Cl)c(Cl)c1)c1ccc(Br)cn1` is more than 30 min.
For `OCc1ccc(-c2nn(Cc3ccccc3)c3ccccc23)o1`, the half-life worked out at 5.17 min.
Molecule `O=C(Nc1nc(-c2ccccc2)cs1)c1ccncc1NS(=O)(=O)c1ccc(C(F)(F)F)cc1` displayed a half-life of 20 min.
Molecule `Cc1sc(NC(=O)Cc2ccc3c(c2)OCO3)nc1-c1ccc2c(c1)CCN2C(=O)c1ccccc1Cl` displayed a half-life of 24 min.
For `NC(=O)C1CCN(c2nc(-c3ccc4c(c3)CCO4)cs2)CC1`, the half-life turned out to be 5.55 min.
In the case of `COC(=O)C1=COC(C)C2CN3CCc4c([nH]c5cc(OC)c(OC)cc45)C3CC12` (centres undefined), the half-life turned out to be 26.3 min.
`O=C(CCS(=O)(=O)c1nc(-c2cccs2)cc(C(F)(F)F)n1)Nc1ccc(OC(F)(F)F)cc1`: the half-life came out at 2.45 min.
In the case of `CN(C)c1ccc(-c2csc(N3CCC(C(N)=O)CC3)n2)cc1`, the half-life is 4.12 min.
On to `Cc1cc(-c2nnc3n2CCCCC3)c(C)n1-c1ccccc1`, for which the half-life amounted to 3.27 min.
`O=C(Nc1nc(-c2ccc(F)cc2)cs1)c1ccncc1NS(=O)(=O)c1ccc(F)cc1` gave a half-life of more than 30 min.
Consider `CCN1C(=O)c2ccccc2S(=O)c2ccc(NC(=O)Cc3ccc(F)cc3)cc21` (centres undefined), for which the half-life was found to be 6.3 min.
Turning to `CN([C@@H](Cc1ccc(O[S+](=O)([O-])c2cccc3cnccc23)cc1)C(=O)N1CCN(C(=O)OCc2ccccc2)CC1)[S+](=O)([O-])c1cccc2cnccc12`, the half-life was 2.7 min.
The molecule `Cc1cc(C)cc(NS(=O)(=O)c2ccc3[nH]cc(C(=O)NCc4ccco4)c(=O)c3c2)c1` gave a half-life of 1.84 min.
Take `CCc1ccc2oc(=O)cc(CN3CCN(c4ccccc4F)CC3)c2c1`: the half-life is 3 min.
In turn, `N#Cc1cc(NC(=O)Nc2nnc(-c3ccncc3)s2)ccc1-c1cn[nH]c1` showed a half-life of more than 30 min.
`COc1cc([C@@H]2c3cc4c(cc3[C@H](O)[C@H]3COC(=O)[C@H]23)OCO4)cc(OC)c1OC` showed a half-life of more than 30 min.
Next, `COc1ccc(-n2nc(C3CCN(C(=O)C4CC4)CC3)[nH]c2=O)cc1`: more than 30 min.
Consider `Cc1ccc(S(=O)(=O)Nc2ccc(Br)cc2C(=O)Nc2nc(-c3ccccc3)cs2)cc1`, for which the half-life amounted to 8.9 min.
The molecule `COc1ccc(-c2nc3ccccc3c(=O)n2Cc2ccco2)cc1COc1ccc(NC(C)=O)cc1` gave a half-life of 2.17 min.
The molecule `Oc1ccc2[nH]cc(CCCCN3CC=C(c4ccccc4)CC3)c2c1` registered a half-life of more than 30 min.
Consider `COCc1cc(C)nc(SCC(=O)c2ccc(O)c(O)c2)c1C#N`, for which the half-life was determined as 19 min.
For `COc1cccc(CN2CCCC(c3nc(-c4ccncc4)ncc3-c3ccccc3)C2)c1O` (centres undefined), the half-life worked out at 5.95 min.
Molecule `COc1cccc(NS(=O)(=O)c2ccc(NCc3cccc(OC)c3O)cc2)c1` returned a half-life of 4 min.
Next, `COc1cccc(CNc2ccc(S(=O)(=O)Nc3nccs3)cc2)c1`: 15 min; `O=C(COC(=O)CCC(=O)c1cccs1)NCc1ccco1`: 1 min.
Next, `N#Cc1ccc(S(=O)(=O)Nc2cnccc2C(=O)Nc2nc(-c3ccccc3)cs2)cc1`: more than 30 min; `Cc1nc(N2CCN(c3ccccn3)CC2)c2c(C)c(C(=O)Nc3ccc(F)cc3Cl)sc2n1`: 10.2 min; `COc1ccccc1C(=O)Nc1nc2nc(C)cc(=O)n2[nH]1`: 26 min.
For `O=C(N[C@@H](Cc1ccccc1)C(=O)CCl)OCc1ccccc1`, the half-life was 14 min.
As to `Fc1ccc(-c2csc3ncnc(Sc4nnnn4C4CC4)c23)cc1`, the half-life was determined as 4.2 min.
In turn, `COC(=O)c1cc2occc2n1Cc1nc(-c2ccc(C)cc2)oc1C` had a half-life of 3.86 min.
In the case of `O=C(O)c1ccc(N2C(=O)/C(=C/c3ccc(-c4ccc([N+](=O)[O-])cc4)o3)C=C2c2ccccc2)cc1`, the half-life is more than 30 min.
As to `COc1ccc(NC(=O)c2c(C)c(C(C)=O)c(C)n2C)cc1S(=O)(=O)Nc1ccc(Br)cc1`, the half-life came to 5.9 min.
Molecule `COc1cc(C2c3c(oc4cc(C)c(C)cc4c3=O)C(=O)N2CCCN2CCOCC2)ccc1O` (centres undefined) had a half-life of 12.7 min.
Take `O=C(NCC1(c2nc(-c3ccccc3)cs2)CCOCC1)c1cccc(-c2noc(C(F)(F)F)n2)c1`: the half-life turned out to be 2.92 min.
`O=C(c1cnn(-c2cccc(F)c2)c1-n1cccc1)N1CCN(c2ccccc2F)CC1` gave a half-life of 1.93 min.
In turn, `Cc1cc(-c2nnc3n2CCCCC3)c(C)n1-c1ccc(F)cc1` gave a half-life of 3.2 min.
`CC(=O)N1CCc2c(sc3c2c(=O)n(-c2ccccc2)c(=O)n3CC(=O)c2ccccc2)C1` displayed a half-life of more than 30 min.
The figure for `CCOc1ccc(CCNC(=O)c2cc3sccc3n2Cc2ccncc2)cc1OCC` is 1.6 min; for `C[S+](=O)([O-])c1ccc(-c2nc(C(=O)N3CCOCC3)n3ccccc23)cc1` it is more than 30 min; for `COC(=O)CNC(=O)c1nc(-c2ccc([S+](C)(=O)[O-])cc2)c2ccccn12` it is more than 30 min.
The molecule `CC1(C)CC2CC(C)(CN2S(=O)(=O)c2ccc(C(=O)Nc3ccc(Cl)cc3)cc2)C1` (centres undefined) yielded a half-life of 2.3 min.
As for `Cn1c(=O)c2[nH]c(=O)[nH]c2n(C)c1=O`, the half-life is more than 30 min.
The molecule `COc1ccc(NC(=O)c2c(C)cccc2C)cc1[S+](=O)([O-])N1CCCCC1` returned a half-life of 4.2 min.
The figure for `CC(=O)Nc1cccc(Nc2nc3ccccc3n3c(C)nnc23)c1` is more than 30 min; for `CC(C)(C)CN1CCNc2cc(Nc3ccccc3)ncc2C1` it is 1.64 min.
Next, `O=C1CCCC2=C1C(c1[nH]ncc1Cl)N=C(Nc1nc3c(Br)cccc3o1)N2` (centres undefined): 3.2 min; `CCC1=Nc2cc(C(=O)NCCCOC)ccc2Sc2ccc(Br)cc21`: 5.46 min; `Cn1nnnc1Sc1ncnc2scc(-c3cc4ccccc4o3)c12`: 1.05 min.
`CCCN1CNc2c(c(=O)[nH]c(=S)n2CCc2ccc(OC)c(OC)c2)C1` registered a half-life of 18 min.
`Nc1ncnc2c1ncn2[C@H]1O[C@@H](CO)[C@@H](O)[C@H]1N`: the half-life was more than 30 min.
Take `COc1cc(Cl)c(C)cc1NC(=O)CSc1ncc(S(=O)(=O)c2ccc(C(C)(C)C)cc2)c(=O)[nH]1`: the half-life is 6.38 min.
Next, `COc1ccc(NC(=O)c2cccnc2)cc1S(=O)(=O)Nc1ccc(Br)cc1`: 21 min.
Take `Cc1cc(-c2nnc3n2CCCCC3)c(C)n1-c1ccc(Cl)cc1`: the half-life was 1.9 min.
In turn, `CCCCCCOc1ccc(OC(=O)c2ccncc2)cc1` displayed a half-life of 2.32 min.
The molecule `CCN(CC)CCCC(C)Nc1cc(/C=C/c2ccccc2Cl)nc2cc(Cl)ccc12` (centres undefined) gave a half-life of 7.34 min.
Next, `Fc1cccc(CN2CCNc3cc(Nc4ccccc4)ncc3C2)c1`: 1.14 min; `NCC(=O)Nc1cccc(-c2nn3c(=O)cc(N4CCNCC4)nc3s2)c1`: more than 30 min.
`CCCOC(c1cc2nccc(C(=O)O)c2[nH]1)c1ccccc1Cl` (centres undefined) registered a half-life of 23.1 min.
With `Cc1ccc(-c2nc3ccccc3o2)cc1NC(=O)COc1ccccc1`, the half-life was 3.5 min.
The molecule `COc1ccccc1CN1CCNc2cc(Nc3ccccc3)ncc2C1` showed a half-life of 1.21 min.
Next, `COc1ccc(O)c(CNc2ccc(S(=O)(=O)Nc3nccs3)cc2)c1`: more than 30 min; `COc1ccc(-n2nc(C)c([C@@H]3C=C[C@@H](NCc4ccc(F)cc4)C3)c2C)cc1`: 6.66 min; `Cc1ccc(CNCc2cn[nH]c2-c2ccc(C)cc2)cc1`: 1.34 min.
Next, `O=C(NCc1ccc(S(=O)(=O)c2cccc(C(F)(F)F)c2)cc1)c1cnc2[nH]ncc2c1`: more than 30 min.
Regarding `CS(=O)(=O)c1cccc(-c2csc(N3CCC(C(N)=O)CC3)n2)c1`, the half-life is more than 30 min.
The figure for `Nc1c(-c2ccncc2)cc[nH]c1=O` is more than 30 min; for `O=S(=O)(c1ccccc1)N1CCN(c2nc(-c3ccc(Br)cc3)cs2)CC1` it is 27.7 min; for `O=c1c2ccccc2nc2n1CCC2` it is more than 30 min.
Regarding `CC(=O)c1c(C)[nH]c(C(=O)Nc2cccc([S+](=O)([O-])N3CCC(F)(F)CC3)c2)c1C`, the half-life was determined as 2.4 min.
Molecule `Cc1ccc(Nc2nc(-c3ccncc3)nc3ccccc23)cc1F` displayed a half-life of 12 min.
For `Cc1ccc(S(=O)(=O)Nc2cnccc2C(=O)Nc2ccc(-c3nn[nH]n3)cc2)cc1`, the half-life is more than 30 min.
As to `CCS(=O)(=O)c1ncc(N(Cc2ccc(F)cc2)Cc2ccco2)c(C(=O)Nc2cc(C)ccc2C)n1`, the half-life is 3.51 min.
`O=S(=O)(Nc1ccc2ccccc2c1)c1ccc(NCc2ccc(Br)cc2O)cc1` showed a half-life of 15 min.
Next, `O=C(NCc1ccccc1)C1CCN(c2nc(-c3ccc(Br)cc3)cs2)CC1`: 1.75 min; `CN1CCN(c2ccc(-c3cccc(CN4CCOCC4)c3)cc2NC(=O)c2c[nH]c(=O)cc2C(F)(F)F)CC1`: more than 30 min.
`COc1cccc(CNCc2cccn2-c2nnc(N3CCN(c4ccccc4)CC3)s2)c1` came in with a half-life of 2.06 min.
The molecule `CC1=C(C(=O)Nc2nnc(-c3ccccc3)s2)C(c2nn(C)cc2Cl)N=C(Nc2nc3ccccc3o2)N1` (centres undefined) displayed a half-life of 11 min.
In turn, `CCc1ccc(NC(=O)c2cc3ncccn3n2)cc1` yielded a half-life of 2.8 min.
On to `COc1ccc2cc1Oc1ccc(cc1)C[C@@H]1c3c(cc(OC)c4c3Oc3cc5c(cc3O4)CCN[C@H]5C2)CCN1C`, for which the half-life was more than 30 min.
As for `CSc1cccc(NC(=O)CC[C@H]2O[C@@H]3O[C@]4(C)CC[C@H]5[C@H](C)CC[C@@H]([C@@H]2C)[C@@]35OO4)c1`, the half-life was 2.3 min.
Take `CC(C)CCNC(=O)[C@H](CC(C)C)NC(=O)[C@H]1O[C@@H]1C(=O)O`: the half-life was more than 30 min.
With `NS(=O)(=O)c1ccc(NC(=O)c2cc3ncccn3n2)cc1`, the half-life is more than 30 min.
The figure for `O=C(O)c1cccc(-c2cnc3ccccc3c2)c1` is more than 30 min; for `O=C1c2ccccc2C2=Nc3ccccc3SC(c3ccccc3F)C12` (centres undefined) it is 3.11 min.
Take `COc1cc(NS(=O)(=O)c2ccc(C)cc2)cc(C(=O)Nc2nc(-c3ccccc3)cs2)c1`: the half-life was determined as 13 min.
